Results taken from US9402819B2, “Anti-HIV compound and preparation method and use thereof” (Sichuan University, priority 2012, dated 2016).
Converted amounts (≈) assume the structure as drawn.

Key:
[1] = Cytotoxicity (CC50) in H9 cells; assay type: cell-based, human; details: human
Method: (§1) The anti-HIV activity was determined by the “Guiding Principles of Anti HIV Drug Unclinical Pharmacodynamics” of SFDA which is tested by technology standard assay according to International Universal Standards and Methods. Where in CC50, EC50 were measured twice and took the average.

[2] = system: HIV-1IIIB; experiment: Anti-HIV activity in H9 cells; assay type: cell-based; details: for TI: CC50/EC50
Method: as §1

[3] = Cytotoxicity (CC50) in C8166 cells; assay type: cell-based; details: human
Method: as §1

[4] = system: HIV-1IIIB; experiment: Anti-HIV activity in C8166 cells; assay type: cell-based; details: for TI: CC50/EC50
Method: as §1

[5] = Human immunodeficiency virus 1, HIV-1IIIB, H9 cells, read-out: EC50
[6] = Human immunodeficiency virus 1, HIV-1IIIB, C8166 cells, read-out: EC50

| Structure (SMILES) | CC50 ([1]; H9 cells, read-out: CC50) [µg/mL] | EC50 [2, 5] [µg/mL] | CC50 [3] [µg/mL] | EC50 [4, 6] [µg/mL] | TI ([2]; H9 cells) | TI ([4]; C8166 cells) | CC50 [1] [µg/mL] | EC50 ([2]; Human immunodeficiency virus 1, H9) [µg/mL] | EC50 ([4]; Human immunodeficiency virus 1, C8166) [µg/mL] |
| --- | --- | --- | --- | --- | --- | --- | --- | --- | --- |
| COc1ccccc1NC(=O)c1cc(C(F)(F)F)ccc1Sc1ccc([N+](=O)[O-])cc1 [Compound 22, N-(2-methoxyphenyl)-2-((4-nitrophenyl)thio)-5-(trifluoromethyl)benzamide] | > 200 |  |  |  |  |  |  |  |  |
| COc1ccccc1NC(=O)c1cc([N+](=O)[O-])ccc1Sc1ccc([N+](=O)[O-])cc1 [Compound 23, N-(2-methoxyphenyl)-5-nitro-2-(4-nitrophenylthio)benzamide] | > 200 | > 200 | > 200 | > 200 |  |  |  |  |  |
| COc1ccccc1NC(=O)c1cc(NC(C)=O)ccc1Sc1ccc([N+](=O)[O-])cc1 [Compound 29, 5-acetamido-N-(2-methoxyphenyl)-2-((4-nitrophenyl)thio)benzamide] | 74.6 (≈ 171 µM) | > 200 | 110 (≈ 251 µM) | 73.5 (≈ 168 µM) | <0.37 | 1.49 |  |  |  |
| Nc1cccc(NC(=O)c2c(N)cccc2Sc2ccc([N+](=O)[O-])cc2)c1 [Compound 49, 2-amino-N-(3-aminophenyl)-6-(4-nitroph-enylthio)benzamide] | > 200 | 41.5 (≈ 109 µM) |  |  | 4.82 |  |  |  |  |
| COc1cc(N)ccc1NC(=O)c1c(N)cccc1Sc1ccc([N+](=O)[O-])cc1 [Compound 50, 2-amino-N-(4-amino-2-methoxyphenyl)-6-(4-nitrophenylthio)benzamide] | 81.1 (≈ 197 µM) | 28.3 (≈ 68.9 µM) |  |  | 2.87 |  |  |  |  |
| COc1ccc(NC(=O)c2c(N)cccc2Sc2ccc([N+](=O)[O-])cc2)c(OC)c1 [Compound 51, 2-amino-N-(2,4-dimethoxyphenyl)-6-(4-nitrophenylthio)benzamide] | 18.1 (≈ 42.5 µM) | 18.8 (≈ 44.3 µM) |  |  | 0.96 |  |  |  |  |
| COc1ccccc1NC(=O)c1c(Sc2ccc([N+](=O)[O-])cc2)cccc1[N+](=O)[O-] [Compound 52, N-(2-methoxyphenyl)-2-nitro-6-(4-nitrophenylthio)benzamide] | > 200 | > 200 |  |  |  |  |  |  |  |
| Nc1ccccc1NC(=O)c1c(Sc2ccc([N+](=O)[O-])cc2)cccc1[N+](=O)[O-] [Compound 53, N-(2-aminophenyl)-2-nitro-6-(4-nitrophenylthio)benzamide] | > 200 | 43.7 (≈ 106 µM) |  |  | >4.58 |  |  |  |  |
| O=C(O)c1cccc(NC(=O)c2c(Sc3ccc([N+](=O)[O-])cc3)cccc2[N+](=O)[O-])c1 [Compound 54, 3-(2-nitro-6-(4-nitrophenylthio)benzamildo)benzoic acid] |  | 83.9 (≈ 191 µM) |  |  | 1.02 |  | 85.8 (≈ 195 µM) |  |  |
| Nc1ccc(NC(=O)c2c(Sc3ccc([N+](=O)[O-])cc3)cccc2[N+](=O)[O-])cc1 [Compound 55, N-(4-aminophenyl)-2-nitro-6-(4-nitrophenylthio)benzamide] | > 200 | > 200 | > 200 | > 200 |  |  |  |  |  |
| COc1ccccc1NC(=O)c1c(NS(=O)(=O)c2ccccc2)cccc1Sc1ccc([N+](=O)[O-])cc1 [Compound 56, N-(2-methoxyphenyl)-2-(4-nitrophenylthio)-6-(phenylsulfonamido)benzamide] | > 200 | 137 (≈ 256 µM) | > 200 | 24.5 (≈ 45.7 µM) | >1.46 | >8.17 |  |  |  |
| COc1ccccc1NC(=O)c1c(NS(=O)(=O)c2ccc(C)cc2)cccc1Sc1ccc([N+](=O)[O-])cc1 [Compound 57, N-(2-methoxyphenyl)-2-(4-methylphenylsulfonamido)-6-((4-nitrophenyl)thio)benzamide] | > 200 | 16.8 (≈ 30.6 µM) | 37.2 (≈ 67.8 µM) | 14.1 (≈ 25.6 µM) | >11.90 | 2.65 |  |  |  |
| COc1ccccc1NC(=O)c1c(N(C)C)cccc1S(=O)(=O)c1ccc([N+](=O)[O-])cc1 [Compound 58, 2-(dimethylamino)-N-(2-methoxyphenyl)-6-((4-nitrophenyl)sulfonyl)benzamide] | > 200 |  | > 200 |  |  |  |  |  |  |
| CNc1cccc(S(=O)(=O)c2ccc([N+](=O)[O-])cc2)c1C(=O)Nc1ccccc1OC [Compound 59, N-(2-methoxyphenyl)-2-(methylamino)-6-((4-nitrophenyl)sulfonyl)benzamide] |  |  | > 200 |  |  |  |  |  |  |
| COc1ccccc1NC(=O)c1c(NS(=O)(=O)c2ccc(C)cc2)cccc1S(=O)(=O)c1ccc([N+](=O)[O-])cc1 [Compound 60, N-(2-methoxyphenyl)-2-(4-methylphenyls-ulfonamido)-6-((4-nitrophenyl)sulfonyl)benzamide] | > 200 | > 200 | > 200 | 91.3 (≈ 157 µM) |  | >2.19 |  |  |  |
| COc1ccccc1NC(=O)c1c(NS(=O)(=O)c2ccccc2)cccc1S(=O)(=O)c1ccc([N+](=O)[O-])cc1 [Compound 61, N-(2-methoxyphenyl)-2-((4-nitrophenyl)sulfonyl)-6-(phenylsulfonamido)benzamide] | > 200 |  | > 200 |  |  |  |  |  |  |

| Structure (SMILES) | CC50 ([1]; H9 cells, read-out: CC50) [µg/mL] | EC50 [2, 5] [µg/mL] | CC50 [3] [µg/mL] | EC50 [4, 6] [µg/mL] | TI ([2]; H9 cells) | TI ([4]; C8166 cells) | CC50 [1] [µg/mL] | EC50 ([2]; Human immunodeficiency virus 1, H9) [µg/mL] | EC50 ([4]; Human immunodeficiency virus 1, C8166) [µg/mL] |
| --- | --- | --- | --- | --- | --- | --- | --- | --- | --- |
| COc1ccccc1NC(=O)c1c(Sc2ccc([N+](=O)[O-])cc2)cccc1N1CCNCC1 [Compound 62, N-(2-methoxyphenyl)-2-((4-nitrophenyl)thio)-6-(piperazinyl)benzamide] | 14.2 (≈ 30.6 µM) | 3.83 (≈ 8.24 µM) | 10.2 (≈ 22.1 µM) | 3.43 (≈ 7.38 µM) | 3.71 | 2.99 |  |  |  |
| COc1ccccc1NC(=O)c1c(Sc2ccc([N+](=O)[O-])cc2)cccc1N1CCOCC1 [Compound 63, N-(2-methoxyphenyl)-2-morpholino-6-((4-nitrophenyl)thio)benzamide] | > 200 | > 200 | > 200 | 53.3 (≈ 115 µM) |  | >3.75 |  |  |  |
| COc1ccccc1NC(=O)c1c(NCCBr)cccc1Sc1ccc([N+](=O)[O-])cc1 [Compound 64, 2-((2-bromoethyl)amino)-N-(2-methoxyp-henyl)-6-((4-nitrophenyl)thio)benzamide] | 17.8 (≈ 35.5 µM) |  | 10.4 (≈ 20.7 µM) |  | 0.85 | 3.28 |  | 21 (≈ 41.8 µM) | 3.17 (≈ 6.31 µM) |
| COc1ccccc1NC(=O)c1c(NCP(=O)(OC(C)C)OC(C)C)cccc1Sc1ccc([N+](=O)[O-])cc1 [Compound 65, diisopropyl(((2-((2-methoxyphenyl)carbamoyl)-3-((4-nitro-phenyl)thio)phenyl)amino)methyl)phosphonate] | 25.4 (≈ 44.3 µM) |  | 18.8 (≈ 32.8 µM) |  |  |  |  |  |  |
| Nc1cccc(Sc2ccc([N+](=O)[O-])cc2)c1C(=O)Nc1ccccc1I [Compound 71, 2-amino-N-(2-iodophenyl)-6-((4-nitrophenyl)thio)benzamide] | > 200 |  | > 200 |  |  |  |  |  |  |
| Nc1cccc(S(=O)(=O)c2ccc([N+](=O)[O-])cc2)c1C(=O)Nc1ccccc1I [Compound 72, 2-amino-N-(2-iodophenyl)-6-((4-nitrophenyl)sulfonyl)benzamide] | > 200 |  | > 200 |  |  |  |  |  |  |
| CS(=O)(=O)Oc1ccccc1NC(=O)c1c(N)cccc1Sc1ccc([N+](=O)[O-])cc1 [Compound 73, 2-(2-amino-6-((4-nitrophenyl)thio)benzamildo)phenyl methanesulfonate] | > 200 | > 200 | 194 | 36.7 |  | 5.28 |  |  |  |
| COc1ccccc1NC(=O)c1c(N)cccc1Sc1cc(C)cc(C)c1 [Compound 74, 2-amino-6-((3,5-dimethylphenyl)thio)-N-(2-methoxyphenyl)benzamide] | > 200 | > 200 | 68.6 (≈ 181 µM) | 7.26 (≈ 19.2 µM) |  | 9.45 |  |  |  |
| COc1ccccc1NC(=O)c1c(N)cccc1S(=O)(=O)c1cc(C)cc(C)c1 [Compound 75, 2-amino-6-((3,5-dimethylphenyl)sulfonyl)-N-(2-methoxyphenyl)benzamide] | > 200 | > 200 | > 200 | > 200 |  |  |  |  |  |
| COc1ccccc1NC(=O)c1c(N)cccc1Sc1ccc(C(=O)O)cc1 [Compound 76, 4-((3-amino-2-((2-methoxyphenyl)carbamoyl)phenyl)thio)benzoic acid] | > 200 |  | > 200 |  |  |  |  |  |  |
| COc1ccccc1NC(=O)c1c(N)cccc1S(=O)(=O)c1ccc(C(=O)O)cc1 [Compound 77, 4-((3-amino-2-((2-methoxyphenyl)carbamoyl)phenyl)sulfonyl)benzoic acid] | > 200 |  | > 200 |  |  |  |  |  |  |
| COc1ccccc1NC(=O)c1c(NCCN)cccc1S(=O)(=O)c1ccc([N+](=O)[O-])cc1 [Compound 79, 2-((2-aminoethyl)amino)-N-(2-methoxyphenyl)-6-((4-nitrophenyl)sulfonyl)benzamide] | 99.5 (≈ 211 µM) | 101 (≈ 214 µM) | 90.9 (≈ 193 µM) | 93.5 (≈ 199 µM) | 0.99 | 0.97 |  |  |  |
| COc1ccccc1NC(=O)c1c(NCCO)cccc1Sc1ccc([N+](=O)[O-])cc1 [Compound 80, 2-((2-hydroxyethyl)amino)-N-(2-methoxyphenyl)-6-((4-nitrophenyl)thio)benzamide] | 116 (≈ 265 µM) | 19.1 (≈ 43.6 µM) | 93.5 (≈ 213 µM) | 19.4 (≈ 44.2 µM) | 6.08 | 4.81 |  |  |  |
| COc1ccccc1NC(=O)c1c(NCCO)cccc1S(=O)(=O)c1ccc([N+](=O)[O-])cc1 [Compound 81, 2-((2-hydroxyethyl)amino)-N-(2-methoxyphenyl)-6-((4-nitrophenyl)sulfonyl)benzamide] | 72.7 (≈ 154 µM) | 102 (≈ 216 µM) | 102 (≈ 217 µM) | 89.1 (≈ 189 µM) | 0.71 | 1.15 |  |  |  |
| COc1ccccc1NC(=O)c1c(NCC(N)=O)cccc1Sc1ccc([N+](=O)[O-])cc1 [Compound 82, 2-((2-amino-2-oxoethyl)amino)-N-(2-methoxyphenyl)-6-((4-nitrophenyl)thio)benzamide] | > 200 |  | > 200 |  |  |  |  |  |  |
